Here are results for two molecules from ChEMBL document CHEMBL5154816, “Structure-Based Discovery and Optimization of Furo[3,2-c]pyridin-4(5H)-one Derivatives as Potent and Second Bromodomain (BD2)-Selective Bromo and Extra Terminal Domain (BET) Inhibitors” (J Med Chem, 2022).

For one series, the system named is MCF7. Description: Antiproliferative activity against human MCF7 cells assessed as cell growth inhibition incubated for 96 hrs by Cell titre Glo-luminiscence cell viability assay. The following applies: MCF7, 96 h. Type of series: functional, cell-based.
The nature of series [1]: Metabolic stability in rat hepatocytes assessed as hepatic clearance at 1 uM measured up to 60 mins in presence of NADPH by HPLC-MS/MS analysis. Type of series: ADME, cell-based, Hepatocyte.
Series [2] is described as follows: Metabolic stability in rat liver microsomes assessed as half life at 1 uM measured up to 60 mins in presence of NADPH by HPLC-MS/MS analysis. Type of series: ADME, Microsome.
The subject of the next series is U2OS. The series is described as follows: Antiproliferative activity against human U2OS cells assessed as cell growth inhibition incubated for 72 hrs by Cell titre Glo-luminiscence cell viability assay. Type of series: functional, cell-based.
A further series deals with HepG2. Description: Antiproliferative activity against human HepG2 cells assessed as cell growth inhibition incubated for 72 hrs by Cell titre Glo-luminiscence cell viability assay. Type of series: functional, cell-based. The following applies: HepG2, 72 h.
The target in series [3] is T1, Bromodomain-containing protein 3 (Homo sapiens, UniProt Q15059). Description: Binding affinity to His6-fused BRD3 BD2 (unknown origin) assessed as dissociation constant in PBS incubated for 1 hrs by biolayer interferometry analysis.
For another series, the system named is THP-1. Description: Antiproliferative activity against human THP-1 cells assessed as cell growth inhibition incubated for 72 hrs by Cell titre Glo-luminiscence cell viability assay. The following applies: THP-1, 72 h. Type of series: functional, cell-based.
In the next series the test system is MV4-11. The series is described as follows: Antiproliferative activity against human MV4-11 cells assessed as cell growth inhibition incubated for 120 hrs by Cell titre Glo-luminiscence cell viability assay. Type of series: functional, cell-based.
Series [4] can be described thus: Metabolic stability in rat liver microsomes assessed as intrinsic clearance at 1 uM measured up to 60 mins in presence of NADPH by HPLC-MS/MS analysis. As to conditions: 1 h. Type of series: ADME, Microsome.
The next series deals with DU-145. The series is described as follows: Antiproliferative activity against AR-negative human DU-145 cells assessed as cell growth inhibition incubated for 72 hrs by Cell titre Glo-luminiscence cell viability assay. Type of series: functional, cell-based. As to conditions: DU-145, 72 h.
For series [5], the target named is T2, Bromodomain testis-specific protein (Homo sapiens, UniProt Q58F21). Description: Binding affinity to His6-fused BRDT BD2 (unknown origin) assessed as dissociation constant in PBS incubated for 1 hrs by biolayer interferometry analysis.
For the next series, the system named is BXPC-3. The series is described as follows: Antiproliferative activity against human BxPC-3 cells assessed as cell growth inhibition incubated for 72 hrs by Cell titre Glo-luminiscence cell viability assay. Type of series: functional, cell-based. As to conditions: BXPC-3, 72 h.
In a further series the test system is Kasumi 1. The series is described as follows: Antiproliferative activity against human Kasumi 1 cells assessed as cell growth inhibition incubated for 72 hrs by Cell titre Glo-luminiscence cell viability assay. The following applies: Kasumi 1, 72 h. Type of series: functional, cell-based.
A further series concerns U-937. The series is described as follows: Antiproliferative activity against human U-937 cells assessed as cell growth inhibition incubated for 72 hrs by Cell titre Glo-luminiscence cell viability assay. Type of series: functional, cell-based. As to conditions: U-937, 72 h.
Another series deals with MOLM-13. The series is described as follows: Antiproliferative activity against human MOLM-13 cells assessed as cell growth inhibition incubated for 72 hrs by Cell titre Glo-luminiscence cell viability assay. Type of series: functional, cell-based. As to conditions: MOLM-13, 72 h.
The next series concerns A549. The series is described as follows: Antiproliferative activity against human A549 cells assessed as cell growth inhibition incubated for 72 hrs by Cell titre Glo-luminiscence cell viability assay. Type of series: functional, cell-based. As to conditions: A549, 72 h.
Series [6] in a line: Metabolic stability in human liver microsomes assessed as half life at 1 uM measured up to 60 mins in presence of NADPH by HPLC-MS/MS analysis. Type of series: ADME, Microsome.
Another series has as its system HT-29. Description: Antiproliferative activity against human HT-29 cells assessed as cell growth inhibition incubated for 120 hrs by Cell titre Glo-luminiscence cell viability assay. Type of series: functional, cell-based. As to conditions: HT-29, 120 h.
Series [7] has as its target T2, Bromodomain testis-specific protein. The series is described as follows: Binding affinity to His6-fused BRDT BD1 (unknown origin) assessed as dissociation constant in PBS incubated for 1 hrs by biolayer interferometry analysis.
For series [8], the target named is Bromodomain-containing protein 2 (Homo sapiens, UniProt P25440). Description: Binding affinity to His6-fused BRD2 BD2 (unknown origin) assessed as dissociation constant in PBS incubated for 1 hrs by biolayer interferometry analysis.
Series [9] has as its target T1, Bromodomain-containing protein 3. The series is described as follows: Inhibition of C-terminal His6-tagged BRD3 BD2 (unknown origin) using H-YSGRGK(Ac)GGK(Ac)GLGK(Ac)-GGAK(Ac)RHRK-Biotin-OH as substrate incubated for 1 hrs by HTRF assay.
Series [10] in a line: Metabolic stability in human hepatocytes assessed as hepatic clearance at 1 uM measured up to 60 mins in presence of NADPH by HPLC-MS/MS analysis. Type of series: ADME, cell-based, Hepatocyte.
Series [11] is described as follows: Cytotoxicity against human HFL1 cells assessed as cell growth inhibition incubated for 72 hrs by Cell titre Glo-luminiscence cell viability assay. Type of series: toxicity, cell-based.
The next series deals with CWR22R. The series is described as follows: Antiproliferative activity against human 22Rv1 cells assessed as cell growth inhibition incubated for 72 hrs by Cell titre Glo-luminiscence cell viability assay. Type of series: functional, cell-based. The following applies: 22Rv1, 72 h.
Series [12] can be described thus: Metabolic stability in human liver microsomes assessed as intrinsic clearance at 1 uM measured up to 60 mins in presence of NADPH by HPLC-MS/MS analysis. As to conditions: 1 h. Type of series: ADME, Microsome.
Another series has as its system MDA-MB-231. The series is described as follows: Antiproliferative activity against human MDA-MB-231 cells assessed as cell growth inhibition incubated for 96 hrs by Cell titre Glo-luminiscence cell viability assay. Type of series: functional, cell-based. The following applies: MDA-MB-231, 96 h.
The target of series [13] is T3, Bromodomain-containing protein 4 (Homo sapiens, UniProt O60885). The series is described as follows: Binding affinity to His6-fused BRD4 BD1 (unknown origin) assessed as dissociation constant in PBS incubated for 1 hrs by biolayer interferometry analysis.
For series [14], the target named is T3, Bromodomain-containing protein 4. Description: Binding affinity to His6-fused BRD4 BD2 (unknown origin) assessed as dissociation constant in PBS incubated for 1 hrs by biolayer interferometry analysis.

T1 sequence (Q15059 whole entry, the tested form may be a part): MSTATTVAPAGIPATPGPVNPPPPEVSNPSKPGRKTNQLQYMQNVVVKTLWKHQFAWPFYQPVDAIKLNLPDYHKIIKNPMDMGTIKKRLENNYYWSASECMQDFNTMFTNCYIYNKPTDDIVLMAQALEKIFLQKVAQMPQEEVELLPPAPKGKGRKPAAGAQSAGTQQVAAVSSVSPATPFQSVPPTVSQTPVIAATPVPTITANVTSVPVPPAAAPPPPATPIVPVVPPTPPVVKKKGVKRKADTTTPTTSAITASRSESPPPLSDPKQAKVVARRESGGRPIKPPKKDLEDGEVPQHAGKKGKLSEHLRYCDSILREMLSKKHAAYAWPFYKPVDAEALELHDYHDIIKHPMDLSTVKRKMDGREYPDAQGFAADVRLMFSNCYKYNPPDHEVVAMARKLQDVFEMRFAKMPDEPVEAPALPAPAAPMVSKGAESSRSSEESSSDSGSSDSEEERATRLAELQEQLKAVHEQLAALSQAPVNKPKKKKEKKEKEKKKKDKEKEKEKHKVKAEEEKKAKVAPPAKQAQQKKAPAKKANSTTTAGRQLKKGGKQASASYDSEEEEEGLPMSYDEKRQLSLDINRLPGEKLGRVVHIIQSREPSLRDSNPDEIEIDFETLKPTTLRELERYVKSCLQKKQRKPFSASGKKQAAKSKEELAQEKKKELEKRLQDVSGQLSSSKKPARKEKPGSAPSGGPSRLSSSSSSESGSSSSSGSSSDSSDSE
Sequence of Bromodomain-containing protein 2 (P25440 whole entry, the tested form may be a part): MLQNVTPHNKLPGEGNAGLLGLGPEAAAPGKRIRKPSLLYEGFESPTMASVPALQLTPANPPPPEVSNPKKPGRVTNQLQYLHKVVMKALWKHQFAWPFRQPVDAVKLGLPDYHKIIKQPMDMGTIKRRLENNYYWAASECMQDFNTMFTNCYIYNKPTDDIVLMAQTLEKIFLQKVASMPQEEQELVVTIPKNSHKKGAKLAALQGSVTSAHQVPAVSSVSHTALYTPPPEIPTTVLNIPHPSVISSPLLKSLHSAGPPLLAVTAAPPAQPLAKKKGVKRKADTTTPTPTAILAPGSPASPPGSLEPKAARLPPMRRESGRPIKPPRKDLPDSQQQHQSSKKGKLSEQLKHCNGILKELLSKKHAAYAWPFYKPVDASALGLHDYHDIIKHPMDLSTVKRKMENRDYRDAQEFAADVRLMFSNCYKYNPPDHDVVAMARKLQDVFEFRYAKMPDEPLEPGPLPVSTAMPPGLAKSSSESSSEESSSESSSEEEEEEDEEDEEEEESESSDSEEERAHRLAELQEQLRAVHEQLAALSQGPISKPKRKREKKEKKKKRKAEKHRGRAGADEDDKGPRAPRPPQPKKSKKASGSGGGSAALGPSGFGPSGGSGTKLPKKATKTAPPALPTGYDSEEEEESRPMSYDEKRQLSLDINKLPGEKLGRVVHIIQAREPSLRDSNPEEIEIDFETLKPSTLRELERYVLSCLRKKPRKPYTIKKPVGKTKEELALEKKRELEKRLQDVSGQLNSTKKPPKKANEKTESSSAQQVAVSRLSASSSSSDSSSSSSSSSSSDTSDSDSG

As for `Cc1cc(F)cc(C)c1Oc1ccc(C(C)(C)O)cc1-c1cn(C)c(=O)c2cc(-c3cnc(C4CCCC4)[nH]3)oc12`, the IC50 in the series with MCF7 came out at 1000 nM; in the series on U2OS, 1000 nM; in the series with HepG2, 1000 nM; with THP-1, 1300 nM; in the series on MV4-11 (Homo sapiens, MV4-11, 120 h), 0.549 nM; with MV4-11 (mv4-11) it was 0.55 nM. Further, the IC50 in the series with DU-145 amounted to 1000 nM; with BXPC-3, 1000 nM; in the series with Kasumi 1, 471 nM; in the series with U-937, 1000 nM; with MOLM-13, 260 nM; with A549 it was 1000 nM. For the same molecule, the IC50 in the series with HT-29 amounted to 300 nM; in series [9] it was 5.31 nM; with CWR22R, 232 nM; with MDA-MB-231, 1000 nM. Also, the results for the CLhep predicted at 1 µM in [1] and in series [10] were 17.9 mL/min/kg and 17.5 mL/min/kg, respectively. Besides, the CLH in series [1] (1 h, 1 µM) stood at 0.043 mL/min/g; in series [4], 0.043 mL/min/g; in [10] (1 h, 1 µM), 0.115 mL/min/g; in series [12], 0.115 mL/min/g. Moreover, the half-life at 1 µM in [2] amounted to 58.3 min; in series [6], 15.2 min. The equilibrium dissociation constant (Kd) in series [3] came out at 26.3 nM; in series [5], 38.8 nM; in [7], 3670 nM; in series [8], 23.5 nM. Further, the 50% inhibitory concentration (IC50) at 72 h in series [11] is 4600 nM.

Take `Cc1cc(F)cc(C)c1Oc1ccc(C(C)(C)O)cc1-c1cn(C)c(=O)c2cc(-c3cnc(C4CCCCC4)[nH]3)oc12`: the Kd in series [3] turned out to be 89.5 nM; in [5], 195 nM; in [7], 3310 nM; in series [13], 4960 nM; in series [8], 126 nM; in series [14] it was 44.2 nM. The molecule also returned a half-inhibitory concentration (IC50) in series [9] of 12.8 nM.
